Experimental data as given in patent US11072619B2, “Pyrazole[1,5-a] pyrimidine derivatives as kinase JAK inhibitors” (CELON PHARMA S.A., priority 2017, dated 2021).

Legend:
[1] = biological target: Recombinant kinase JAK3 (Homo sapiens (Human), UniProt P52333); assay: In vitro JAK kinase inhibition assay (ADP-Glo), JAK3; assay type: biochemical; conditions: 30 μM ATP, peptide IGF-1Rtide, averaged
Method: (§1) In Vitro JAK Kinase Inhibition Assay
(§2) The effects of the compounds of the invention were analysed in vitro using kinase JAK inhibition assay described below.
(§3) Tested compounds were dissolved in 100% DMSO, and obtained stock solutions were serially diluted in the reaction buffer (50 mM Tris pH 7.5, 10 mM MgCl2, 0.25 mM EGTA, 0.1 mM Na3VO4, 0.01% Triton X-100, 2.5 mM DTT). Recombinant kinases JAK1 (ProQinase), JAK2, or JAK3 (Carna Biosciences) were diluted in the dilution buffer (50 mM Tris-HCl pH 7.5, 150 mM NaCl, 10% glycerol, 0.05% Triton X-100, 1 mM DTT) to the final concentration 3 ng/μL (JAK1), 0.1 ng/μL (JAK2), or 0.2 ng/μL (JAK3). 5 μL of obtained solution of the compounds and 5 μL of the solution of respective kinases were added to the well of a 96-well plate. To initiate interaction between tested compounds and an enzyme, the plate was incubated for 10 minutes at 25° C. in a Plate-Thermo-Shaker with orbital stirring at 400 rpm. Wells of a negative control contained all reagents as mentioned above with the exception of tested compounds and kinase, and wells of a positive controls contained all reagents as mentioned above with the exception of tested compounds. Enzymatic reaction was initiated by the addition of 15 μL of the following solution: 5× concentrated reaction buffer (50 mM Tris pH 7.5, 10 mM MgCl2, 0.25 mM EGTA, 0.1 mM Na3VO4, 0.01% Triton X-100, 2.5 mM DTT), water, 30 μM ATP and for particular kinases: JAK1—60 μM peptide IRS-1 (Enzo), JAK2 or JAK3—10 μM peptide IGF-1Rtide (Lipopharm). Then the plate was incubated for 1 hour at 25° C. in a Plate-Thermo-Shaker, with orbital stirring at 400 rpm. Detection of ADP formed in the enzymatic reaction was then performed using ADP-Glo Kinase Assay kit (Promega). For this purpose, to the well of the 96-well plate 25 μL of ADP-Glo Reagent were added, and the plate was incubated for 40 minutes at 25° C. in a Plate-Thermo-Shaker with orbital stirring at 400 rpm. Then to the well of the 96-well plate 50 μL of Kinase Detection Reagent were added and the plate was incubated for 30 minutes at 25° C. in a Plate-Thermo-Shaker with orbital stirring at 400 rpm. After incubation, luminescence intensity was measured using Victor×Light luminometer (Perkin Elmer, Inc.).
(§4) On the basis of luminescence measurement in wells containing tested compounds at various concentrations and in control wells, IC50 values were determined. These values were determined with Graph Pad software v. 5.03, by fitting points of the curve using non-linear regression method. Each compound was tested in at least 6 repetitions (6 wells) on two 96-well plates, using at least 3 wells of each control.
(§5) Averaged results of kinases JAK inhibition activity for selected compounds of the present invention are presented below in Table 1.

[2] = tested on: TF-1 cells; assay: TF-1 cells viability in vitro in the presence of IL-4 (JAK1/JAK3 activation); assay type: cell-based; conditions: Homo sapiens, TF-1; 20 ng/mL IL-4, 72 hours, ATPlite; read-out: JAK1,3 IL4 (EC50, inhibition of viability of TF-1 cells)
Method: (§6) Assay for TF-1 Cells Viability In Vitro
(§7) The effects of the activity of the compounds of the invention were tested in vitro using cells viability assay described below.
(§8) Tested compounds were dissolved in 100% DMSO, and obtained stock solutions were serially diluted in OptiMEM medium (Reduced Serum Medium-Thermo Fisher Scientific). TF-1 cells (DSMZ no.: ACC 334) in culture medium (80% RPMI 1640+20% FBS) ad in the presence of 5 ng/mL IL-3 or 20 ng/mL IL-4 were deposited on 96-well plates in the volume of 90 μl per well, 10 thousands of cells per well. To a well of the 96-well plate 10 μL of the prepared 10× stock solutions of the compounds. Cells on 96-well plates were incubated with the compounds for 72 hours at 37° C., 5% CO2. Subsequently, viability of the cells was measured using ATPlite kit (Perkin Elmer). For this purpose, 50 μL of lysis buffer (mammalian cell lysis solution) were added to a well of the 96-well plate and the plate was incubated for 10 minutes at 25° C. in a plate thermo-shaker with orbital stirring at 600 rpm. Then to a well of the 96-well plate 50 μL of substrate (substrate solution) were added and incubated for 15 minutes at in dark, in a plate thermo-shaker with orbital stirring at 600 rpm. After incubation time, luminescence intensity in a well was measured using Victor×Light luminometer (Perkin Elmer, Inc.).
as §4, with “luminescence intensity measurements” for “luminescence measurement”, “in well” for “in wells”, “control wells EC50” for “control wells, IC50”

[3] = biological target: Recombinant kinase JAK1 (Homo sapiens (Human), UniProt P23458); assay: In vitro JAK kinase inhibition assay (ADP-Glo), JAK1; assay type: biochemical; conditions: 30 μM ATP, peptide IRS-1, averaged
Recombinant kinase JAK1, sequence (P23458 whole entry): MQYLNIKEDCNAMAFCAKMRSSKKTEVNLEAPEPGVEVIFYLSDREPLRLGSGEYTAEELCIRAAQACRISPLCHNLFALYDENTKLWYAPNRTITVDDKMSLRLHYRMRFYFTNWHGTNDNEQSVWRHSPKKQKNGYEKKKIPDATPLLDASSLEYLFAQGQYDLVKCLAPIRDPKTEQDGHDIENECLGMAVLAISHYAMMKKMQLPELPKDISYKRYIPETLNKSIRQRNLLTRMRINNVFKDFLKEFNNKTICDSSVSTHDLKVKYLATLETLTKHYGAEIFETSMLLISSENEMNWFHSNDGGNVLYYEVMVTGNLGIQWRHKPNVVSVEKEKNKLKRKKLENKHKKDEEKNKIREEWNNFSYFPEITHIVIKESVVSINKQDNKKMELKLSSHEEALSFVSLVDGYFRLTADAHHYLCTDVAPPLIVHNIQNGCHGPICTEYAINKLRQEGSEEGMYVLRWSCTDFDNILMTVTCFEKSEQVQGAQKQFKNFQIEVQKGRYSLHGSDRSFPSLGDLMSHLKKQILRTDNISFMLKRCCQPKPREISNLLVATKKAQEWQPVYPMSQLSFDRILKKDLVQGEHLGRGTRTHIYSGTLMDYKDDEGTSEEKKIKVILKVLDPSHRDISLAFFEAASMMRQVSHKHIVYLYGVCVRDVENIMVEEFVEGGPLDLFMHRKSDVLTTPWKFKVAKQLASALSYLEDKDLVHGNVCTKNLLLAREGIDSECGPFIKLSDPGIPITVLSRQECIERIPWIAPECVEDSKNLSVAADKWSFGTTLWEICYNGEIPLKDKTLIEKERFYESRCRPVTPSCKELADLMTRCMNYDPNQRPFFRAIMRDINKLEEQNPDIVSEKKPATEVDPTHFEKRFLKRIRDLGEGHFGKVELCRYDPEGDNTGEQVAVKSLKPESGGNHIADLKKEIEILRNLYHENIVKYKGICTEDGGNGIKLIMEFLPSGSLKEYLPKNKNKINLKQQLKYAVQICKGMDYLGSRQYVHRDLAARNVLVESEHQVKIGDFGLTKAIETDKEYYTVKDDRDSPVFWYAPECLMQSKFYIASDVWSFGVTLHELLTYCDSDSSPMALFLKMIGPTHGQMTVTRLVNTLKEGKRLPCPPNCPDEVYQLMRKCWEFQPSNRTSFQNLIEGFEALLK
Method: as §1, §2, §3, §4, §5

[4] = tested on: STAT6 protein phosphorylation in TF-1 cells; assay: STAT6 phosphorylation inhibition in vitro in TF-1 cells with IL-4; assay type: cell-based; conditions: Homo sapiens, IL-4 20 ng/mL, 1 hour, Western blot densitometry
Method: Assay of STAT6 Phosphorylation Inhibition In Vitro
The activity of the compounds of the invention was tested using in vitro assay described below.
Tested compounds were dissolved in 100% DMSO, and obtained stock solutions were serially in OptiMEM medium (Reduced Serum Medium-Thermo Fisher Scientific). TF-1 cells (DSMZ no.: ACC 334) in culture medium (80% RPMI 1640+20% FBS) in the presence of IL-4 at 20 ng/mL were sieved on 12-well plates at 900 μl/well, 700 thousands of cells/well. To a well of the 12-well plate 100 μL of obtained 10× solution of the compounds were added. Cells on 12-well plates were incubated with tested compounds for 1 hour at 37° C., 5% CO2. Subsequently the cells were washed with PBS, lysed in RIPA buffer added with EDTA, proteases and phosphatases inhibitors, and incubated for 5 min on ice. Protein concentration was determined using Pierce BCA Protein Assay Kit (Thermo Fisher Scientific). Protein lysates were separated by electrophoresis (SDS-PAGE) on 8% polyacrylamide gels, then wet-transferred on nitrocellulose membrane and tested proteins were detected in accordance with the instructions of antibody manufacturer.
On the basis of the measurement of chemoluminescence intensity densitometric analysis was performed, results obtained for the cells treated with tested compounds at various concentrations were compared with those obtained for control cells, and IC50 values were determined.
These values were determined with Graph Pad software v. 5.03, by fitting points of the curve using non-linear regression method. Each compound was tested in at least 3 repetitions.

[5] = tested on: TF-1 cells; assay: TF-1 cells viability in vitro in the presence of IL-3 (JAK2 activation); assay type: cell-based; conditions: Homo sapiens, 5 ng/mL IL-3, 72 hours, ATPlite, read-out: JAK2 IL3 (EC50, inhibition of viability of TF-1 cells)
Method: as §6, §7
as §8, with “TF-1 cells (DSMZ no.: ACC 334) in culture medium (80% RPMI 1640+20% FBS) ad in the presence of 5 ng/mL IL-3 or 20 ng/mL IL-4 were deposited on 96-well plates in the volume of 90 μl per well, 10 thousands of cells per well.” left out
On the basis of luminescence intensity measurements in well containing tested compounds at various concentrations and in control wells EC50 values were determined. These values were determined with Graph Pad software v. […] Each compound was tested in at least 6 repetitions (6 wells) on two 96-well plates, using at least 3 wells of each control.

Recombinant kinase JAK3, sequence (P52333 whole entry): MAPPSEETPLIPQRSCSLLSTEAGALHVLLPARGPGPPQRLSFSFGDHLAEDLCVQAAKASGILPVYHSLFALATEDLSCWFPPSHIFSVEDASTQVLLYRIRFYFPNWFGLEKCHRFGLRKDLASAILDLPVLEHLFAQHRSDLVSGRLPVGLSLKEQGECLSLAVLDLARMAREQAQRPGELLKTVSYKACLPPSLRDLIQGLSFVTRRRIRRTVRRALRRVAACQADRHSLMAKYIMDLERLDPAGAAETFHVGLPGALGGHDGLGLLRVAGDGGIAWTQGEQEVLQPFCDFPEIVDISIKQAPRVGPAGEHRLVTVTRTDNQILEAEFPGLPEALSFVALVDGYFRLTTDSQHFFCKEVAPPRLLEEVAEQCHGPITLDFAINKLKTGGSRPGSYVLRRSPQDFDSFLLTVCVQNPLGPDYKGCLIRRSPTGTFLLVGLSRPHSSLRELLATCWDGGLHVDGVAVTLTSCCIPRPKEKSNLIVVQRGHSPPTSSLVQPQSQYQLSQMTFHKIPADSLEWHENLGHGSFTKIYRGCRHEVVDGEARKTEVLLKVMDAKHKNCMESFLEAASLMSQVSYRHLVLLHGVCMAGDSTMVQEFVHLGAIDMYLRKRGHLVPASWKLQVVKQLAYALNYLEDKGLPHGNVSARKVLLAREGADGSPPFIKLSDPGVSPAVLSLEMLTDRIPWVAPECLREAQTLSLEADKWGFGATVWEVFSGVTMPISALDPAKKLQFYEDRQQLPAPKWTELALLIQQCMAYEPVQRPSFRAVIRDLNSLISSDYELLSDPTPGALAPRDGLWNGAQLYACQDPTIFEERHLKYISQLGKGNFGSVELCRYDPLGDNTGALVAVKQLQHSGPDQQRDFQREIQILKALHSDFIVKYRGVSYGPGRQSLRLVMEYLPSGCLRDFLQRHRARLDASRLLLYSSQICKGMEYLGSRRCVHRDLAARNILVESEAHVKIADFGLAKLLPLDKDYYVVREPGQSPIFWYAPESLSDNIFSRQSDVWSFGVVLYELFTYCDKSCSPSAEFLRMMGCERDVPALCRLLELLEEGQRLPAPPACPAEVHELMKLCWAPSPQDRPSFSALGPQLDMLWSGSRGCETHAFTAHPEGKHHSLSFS

IC50 [1]: 0.2 nM
IC50 [3]: 0.51 nM
IC50 [4]: 215 nM
Structure (SMILES): CC1(C)CN(c2ccc(C#N)nn2)CC[C@H]1Nc1c(C(N)=O)cnc2cc(-c3ccnc(N4CCOCC4)c3)nn12 [Example 13, (R)-7-((1-(6-Cyanopyridazin-3-yl)-3,3-dimethylpiperidin-4-yl)amino)-2-(2-morpholinopyridin-4-yl)pyrazolo[1,5-a]pyrimidine-6-carboxamide]
IC50 [2]: 202 nM
IC50 [5]: 1120 nM
